{"source": "patent US10174037B2", "about": "“Dihydropyrazolopyrimidinone compounds as PDE2 inhibitors” (Merck Sharp & Dohme Corp., priority 2015, dated 2019)", "key": {"Rhesus PDE2A3": {"target": "Rhesus PDE2A3 (Macaca mulatta, UniProt B3VTJ2)", "sequence (B3VTJ2 1-941)": "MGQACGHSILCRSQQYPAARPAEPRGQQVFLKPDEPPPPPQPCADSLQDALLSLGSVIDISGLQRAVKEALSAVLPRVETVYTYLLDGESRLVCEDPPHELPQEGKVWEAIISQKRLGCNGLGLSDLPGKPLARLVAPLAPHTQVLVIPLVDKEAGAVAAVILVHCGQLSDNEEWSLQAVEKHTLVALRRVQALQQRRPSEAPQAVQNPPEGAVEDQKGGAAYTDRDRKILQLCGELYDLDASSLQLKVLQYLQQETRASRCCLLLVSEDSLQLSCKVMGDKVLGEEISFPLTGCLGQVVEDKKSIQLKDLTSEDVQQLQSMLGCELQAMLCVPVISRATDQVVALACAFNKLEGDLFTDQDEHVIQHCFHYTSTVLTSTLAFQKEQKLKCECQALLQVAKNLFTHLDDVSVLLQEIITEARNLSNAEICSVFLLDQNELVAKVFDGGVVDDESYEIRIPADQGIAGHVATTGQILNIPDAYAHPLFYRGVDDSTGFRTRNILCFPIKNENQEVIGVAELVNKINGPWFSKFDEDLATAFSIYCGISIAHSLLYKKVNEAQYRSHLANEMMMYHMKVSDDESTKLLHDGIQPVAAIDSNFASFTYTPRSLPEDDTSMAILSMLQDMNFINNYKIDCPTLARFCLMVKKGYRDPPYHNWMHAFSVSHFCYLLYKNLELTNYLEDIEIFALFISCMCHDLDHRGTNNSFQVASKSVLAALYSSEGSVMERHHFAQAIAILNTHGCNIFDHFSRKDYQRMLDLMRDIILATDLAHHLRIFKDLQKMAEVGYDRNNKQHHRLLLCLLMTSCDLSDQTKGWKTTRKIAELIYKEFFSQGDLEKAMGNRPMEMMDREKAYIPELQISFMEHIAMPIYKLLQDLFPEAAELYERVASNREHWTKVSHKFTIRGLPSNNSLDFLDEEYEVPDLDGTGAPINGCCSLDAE", "assay": "PDE2 fluorescence polarization (IMAP FP) assay, rhesus PDE2A3", "type": "biochemical, rhesus macaque", "procedure": "A Labcyte Echo 555 (Labcyte, Sunnyvale, Calif.) is used to dispense 200 nL from each well of the titration plate to the 384 well assay plate. Ten microliters of a solution of enzyme (1/2000 final dilution from aliquots; sufficient to produce 20% substrate conversion) was added to the assay plate. Next 10 uL of a separate solution of the substrate FAM-labeled cAMP (50 nM final concentration product # R7506 from Molecular Devices) and the activator cGMP (1 uM final concentration), prepared in the assay buffer (10 mM Tris HCl, pH 7.2, 10 mM MgCl2, 0.05% NaN3 0.01% Tween-20, and 1 mM DTT) was added to the assay plate and shaken to mix. The reaction is allowed to proceed at room temperature for 60 minutes. A binding solution is then made from the kit components, comprised of 80% Solution A, 20% Solution B and binding reagent at a volume of 1/600 the total binding solution. The enzymatic reaction is stopped by addition of 60 μL of the binding solution to each well of the assay plates and the plates are sealed and shaken for 30 seconds. The plate was incubated at room temperature for at least one hour prior to determining the fluorescence polarization (FP). The parallel and perpendicular fluorescence of each well of the plate was measured using a Tecan Genios Pro plate reader (Tecan, Switzerland) or Perkin Elmer EnVision™ plate reader (Waltham, Mass.). Fluorescence polarization (mP) was calculated from the parallel (S) and perpendicular (P) fluorescence of each sample well and the analogous values for the median control well, containing only substrate (So and Po), using the following equation: Polarization (mP)=1000*(S/So−P/Po)/(S/So+P/Po).\nDose-inhibition profiles for each compound were characterized by fitting the mP data to a four-parameter equation given below.\nAn apparent (KM) for FAM-labeled cAMP of ˜10 uM was used."}, "human PDE2A1": {"target": "human PDE2A1 (Homo sapiens (Human), UniProt O00408)", "sequence (O00408 other isoform, or with tags, fused parts or gaps)": "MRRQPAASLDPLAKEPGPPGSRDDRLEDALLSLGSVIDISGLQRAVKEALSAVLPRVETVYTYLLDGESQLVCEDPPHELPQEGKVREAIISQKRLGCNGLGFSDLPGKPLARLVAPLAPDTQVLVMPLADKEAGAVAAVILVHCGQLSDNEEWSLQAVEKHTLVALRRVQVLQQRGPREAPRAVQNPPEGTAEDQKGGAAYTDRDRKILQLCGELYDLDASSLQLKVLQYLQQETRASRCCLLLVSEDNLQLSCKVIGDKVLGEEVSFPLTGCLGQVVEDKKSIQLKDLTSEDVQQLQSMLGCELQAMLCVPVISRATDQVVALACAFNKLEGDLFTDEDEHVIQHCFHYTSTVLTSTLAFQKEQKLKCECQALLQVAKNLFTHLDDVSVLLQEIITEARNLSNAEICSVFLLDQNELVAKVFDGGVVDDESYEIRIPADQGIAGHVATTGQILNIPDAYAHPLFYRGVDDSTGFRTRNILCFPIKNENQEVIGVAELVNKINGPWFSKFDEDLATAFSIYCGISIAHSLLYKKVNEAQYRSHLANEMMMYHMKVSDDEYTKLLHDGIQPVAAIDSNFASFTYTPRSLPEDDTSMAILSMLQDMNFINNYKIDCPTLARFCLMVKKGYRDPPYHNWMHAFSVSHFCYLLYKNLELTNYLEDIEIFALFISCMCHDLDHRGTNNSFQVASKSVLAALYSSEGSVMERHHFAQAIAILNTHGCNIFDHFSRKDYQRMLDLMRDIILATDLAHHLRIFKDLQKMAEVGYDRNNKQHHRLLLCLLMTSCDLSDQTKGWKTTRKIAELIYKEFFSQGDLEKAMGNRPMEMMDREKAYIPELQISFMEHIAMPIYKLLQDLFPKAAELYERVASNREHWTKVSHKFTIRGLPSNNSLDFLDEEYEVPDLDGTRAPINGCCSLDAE", "assay": "PDE selectivity IMAP FP assay, human PDE2A1", "type": "biochemical", "conditions": "Human PDE2", "method_in_brief": "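Compound titrations run against PDE2 in Tris HCl pH 7.2 buffer with MgCl2 and DTT for 60 min at room temperature, using 50 nM FAM-cAMP plus 1000 nM cGMP and enzyme giving 20% conversion.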"}, "[1]": {"conditions": "Lab B, read-out: Rhesus PDE2 Ki (nM) Lab B"}, "[2]": {"conditions": "Lab B, read-out: Human PDE2 Ki (nM) Lab B"}, "[3]": {"conditions": "Lab A, read-out: Rhesus PDE2 Ki (nM) Lab A"}, "[4]": {"conditions": "Lab A, read-out: Human PDE2 Ki (nM) Lab A"}}, "note": "Read-outs that look alike come from different tables or passages of the source.", "data": [{"smiles": "C[C@H](c1ccc(C(F)(F)F)c(F)c1)n1nc(CF)c2c(=O)[nH]c(O)nc21", "note": "(mixture of isomers) [Example 34, (R)- and (S)-1-(1-(3-Fluoro-4-(trifluoromethyl)phenyl)ethyl)-3-(fluoromethyl)-6-hydroxy-H-pyrazolo[3,4-d]pyrimidin-4(5H)-one]", "values": [{"measurement": "Ki", "setting": "Rhesus PDE2A3; [1]", "value": 2.4, "unit": "nM"}, {"measurement": "Ki", "setting": "human PDE2A1; [2]", "value": 2.1, "unit": "nM"}]}, {"smiles": "CC(c1ccc(OC(F)(F)F)c(F)c1)n1nc(CC(F)(F)F)c2c(=O)[nH]c(O)nc21", "note": "(racemic) [Example 229, 1-(1-(3-Fluoro-4-(trifluoromethoxy)phenyl)ethyl)-6-hydroxy-3-(2,2,2-trifluoroethyl)-1H-pyrazolo[3,4-d]pyrimidin-4(5H)-one]", "values": [{"measurement": "Ki", "setting": "Rhesus PDE2A3; [1]", "value": 13, "unit": "nM"}, {"measurement": "Ki", "setting": "human PDE2A1; [2]", "value": 9.6, "unit": "nM"}]}, {"smiles": "CC(c1ccc(OC(F)(F)F)cc1)n1nc(CC(F)(F)F)c2c(=O)[nH]c(O)nc21", "note": "(racemic) [Example 230, 6-Hydroxy-3-(2,2,2-trifluoroethyl)-1-(1-(4-(trifluoromethoxy)phenyl)ethyl)-1H-pyrazolo[3,4-d]pyrimidin-4(5H)-one]", "values": [{"measurement": "Ki", "setting": "Rhesus PDE2A3; [1]", "value": 21, "unit": "nM"}, {"measurement": "Ki", "setting": "human PDE2A1; [2]", "value": 13, "unit": "nM"}]}, {"smiles": "CC(c1ccc(S(F)(F)(F)(F)F)cc1)n1nc(CC(F)(F)F)c2c(=O)[nH]c(O)nc21", "note": "(racemic) [Example 231, 6-Hydroxy-3-(2,2,2-trifluoroethyl)-1-(1-(4-(pentafluorosulfanyl)phenyl)ethyl)-1H-pyrazolo[3,4-d]pyrimidin-4(5H)-one]", "values": [{"measurement": "Ki", "setting": "Rhesus PDE2A3; [1]", "value": 25, "unit": "nM"}, {"measurement": "Ki", "setting": "human PDE2A1; [2]", "value": 18, "unit": "nM"}]}, {"smiles": "CC(c1ccc(C(F)(F)F)c(F)c1)n1nc(CO)c2c(=O)[nH]c(O)nc21", "note": "(single isomer, unassigned) [Example 1]", "values": [{"measurement": "Ki", "setting": "Rhesus PDE2A3; [1]", "value": 13, "unit": "nM"}, {"measurement": "Ki", "setting": "human PDE2A1; [2]", "value": 11, "unit": "nM"}]}, {"smiles": "CC(C)C(c1ccc(C(F)(F)F)cc1)n1nc(CO)c2c(=O)[nH]c(O)nc21", "note": "(single isomer, unassigned) [Example 13, (S)- or (R)-6-Hydroxy-3-(hydroxymethyl)-1-(2-methyl-1-(4-(trifluoromethyl)phenyl)propyl)-1H-pyazolo[3,4-d]pyrimidin-4(5H)-one]", "values": [{"measurement": "Ki", "setting": "Rhesus PDE2A3; [1]", "value": 9.2, "unit": "nM"}, {"measurement": "Ki", "setting": "human PDE2A1; [2]", "value": 8.3, "unit": "nM"}]}, {"smiles": "CC(c1ccc(C(F)(F)F)cc1)n1nc(CO)c2c(=O)[nH]c(O)nc21", "note": "(single isomer, unassigned) [Example 19, (S)- or (R)-6-Hydroxy-3-(hydroxymethyl)-1-{1-[4-(trifluoromethyl)phenyl]ethyl}-1,5-dihydro-4H-pyrazolo[3,4-d]pyrimidin-4-one]", "values": [{"measurement": "Ki", "setting": "Rhesus PDE2A3; [3]", "value": 14, "unit": "nM"}, {"measurement": "Ki", "setting": "Rhesus PDE2A3; [1]", "value": 20, "unit": "nM"}, {"measurement": "Ki", "setting": "human PDE2A1; [4]", "value": 9, "unit": "nM"}, {"measurement": "Ki", "setting": "human PDE2A1; [2]", "value": 24, "unit": "nM"}]}, {"smiles": "CC(c1ccc(S(F)(F)(F)(F)F)cc1)n1nc(CO)c2c(=O)[nH]c(O)nc21", "note": "(single isomer, unassigned) [Example 21, (S)- or (R)-6-Hydroxy-3-(hydroxymethyl)-1-{1-[4-(pentafluorosulfanyl)phenyl]ethyl}-1,5-dihydro-4H-pyrazolo[3,4-d]pyrimidin-4-one]", "values": [{"measurement": "Ki", "setting": "Rhesus PDE2A3; [3]", "value": 20, "unit": "nM"}, {"measurement": "Ki", "setting": "Rhesus PDE2A3; [1]", "value": 27, "unit": "nM"}, {"measurement": "Ki", "setting": "human PDE2A1; [4]", "value": 13, "unit": "nM"}, {"measurement": "Ki", "setting": "human PDE2A1; [2]", "value": 28, "unit": "nM"}]}, {"smiles": "CC(C)C(c1ccc(C(F)(F)F)c(F)c1)n1nc(CO)c2c(=O)[nH]c(O)nc21", "note": "(single isomer, unassigned) [Example 27, (R)- or (S)-1-(1-(3-Fluoro-4-(trifluoromethyl)phenyl)-2-methylpropyl)-6-hydroxy-3-(hydroxymethyl)-1H-pyrazolo[3,4-d]pyrimidin-4(5H)-one]", "values": [{"measurement": "Ki", "setting": "Rhesus PDE2A3; [1]", "value": 5.2, "unit": "nM"}, {"measurement": "Ki", "setting": "human PDE2A1; [2]", "value": 7, "unit": "nM"}]}, {"smiles": "CC(C)C(c1ccc(OC(F)(F)F)cc1)n1nc(CF)c2c(=O)[nH]c(O)nc21", "note": "(single isomer, unassigned) [Example 42, (R)- or (S)-3-(Fluoromethyl)-6-hydroxy-1-(2-methyl-1-(4-(trifluoromethoxy)phenyl)propyl)-1H-pyrazolo[3,4-d]pyrimidin-4(5H)-one]", "values": [{"measurement": "Ki", "setting": "Rhesus PDE2A3; Rhesus PDE2 Ki (nM) Lab B, Lab B", "value": 16, "unit": "nM"}, {"measurement": "Ki", "setting": "human PDE2A1; [2]", "value": 14, "unit": "nM"}]}, {"smiles": "CC(C)C(c1ccc(OC(F)(F)F)cc1)n1nc(CF)c2c(=O)[nH]c(O)nc21", "note": "(single isomer, unassigned) [Example 43, (S)- or (R)-3-(Fluorornethyl)-6-hydroxy-1-(2-methyl-1-(4-(trifluoromethoxy)phenyl)propyl)-1H-pyrazolo[3,4-d]pyrimidin-4(5H)-one]", "values": [{"measurement": "Ki", "setting": "Rhesus PDE2A3; [1]", "value": 4.7, "unit": "nM"}, {"measurement": "Ki", "setting": "human PDE2A1; [2]", "value": 5.3, "unit": "nM"}]}, {"smiles": "O=c1[nH]c(O)nc2c1c(CF)nn2C(c1ccc(OC(F)(F)F)c(F)c1)C1CC1", "note": "(single isomer, unassigned) [Example 44]", "values": [{"measurement": "Ki", "setting": "Rhesus PDE2A3; [1]", "value": 9.8, "unit": "nM"}, {"measurement": "Ki", "setting": "human PDE2A1; [2]", "value": 10, "unit": "nM"}]}, {"smiles": "O=c1[nH]c(O)nc2c1c(CF)nn2C(c1ccc(OC(F)(F)F)c(F)c1)C1CC1", "note": "(single isomer, unassigned) [Example 45]", "values": [{"measurement": "Ki", "setting": "Rhesus PDE2A3; [1]", "value": 29, "unit": "nM"}, {"measurement": "Ki", "setting": "human PDE2A1; [2]", "value": 28, "unit": "nM"}]}, {"smiles": "CC(C)C(c1ccc(C(F)(F)F)c(F)c1)n1nc(CF)c2c(=O)[nH]c(O)nc21", "note": "(single isomer, unassigned) [Example 55]", "values": [{"measurement": "Ki", "setting": "Rhesus PDE2A3; [1]", "value": 1.3, "unit": "nM"}, {"measurement": "Ki", "setting": "human PDE2A1; [2]", "value": 0.96, "unit": "nM"}]}, {"smiles": "CC(C)C(c1ccc(C(F)(F)F)c(F)c1)n1nc(CF)c2c(=O)[nH]c(O)nc21", "note": "(single isomer, unassigned) [Example 56]", "values": [{"measurement": "Ki", "setting": "Rhesus PDE2A3; [1]", "value": 36, "unit": "nM"}, {"measurement": "Ki", "setting": "human PDE2A1; [2]", "value": 37, "unit": "nM"}]}, {"smiles": "CN(C)c1nc2c(c(CO)nn2C(c2ccc(C(F)F)cc2)C2CC2)c(=O)[nH]1", "note": "(single isomer, unassigned) [Example 62]", "values": [{"measurement": "Ki", "setting": "Rhesus PDE2A3; [1]", "value": 0.28, "unit": "nM"}, {"measurement": "Ki", "setting": "human PDE2A1; [2]", "value": 0.27, "unit": "nM"}]}, {"smiles": "CC(C)C(c1ccc(C(F)(F)F)cc1)n1nc(CO)c2c(=O)[nH]c(N(C)C)nc21", "note": "(single isomer, unassigned) [Example 64, (R)- or (S)-6-Dimethylamino)-3-(hydroxymethyl)-1-(2-methyl-1-(4-(trifluoromethyl)phenyl)propyl)-1H-pyrazolo[3,4-d]pyrimidin-4(5H)-one]", "values": [{"measurement": "Ki", "setting": "Rhesus PDE2A3; [1]", "value": 0.39, "unit": "nM"}, {"measurement": "Ki", "setting": "human PDE2A1; [2]", "value": 0.29, "unit": "nM"}]}, {"smiles": "CC(C)C(c1ccc(C(F)(F)F)cc1)n1nc(CO)c2c(=O)[nH]c(N(C)C)nc21", "note": "(single isomer, unassigned) [Example 65, (S)- or (R)-6-Dimethylamino)-3-(hydroxymethyl)-1-(2-methyl-1-(4-(trifluoromethyl)phenyl)propyl)-1H-pyrazolo[3,4-d]pyrimidin-4(5H)-one]", "values": [{"measurement": "Ki", "setting": "Rhesus PDE2A3; [1]", "value": 0.076, "unit": "nM"}, {"measurement": "Ki", "setting": "human PDE2A1; [2]", "value": 0.069, "unit": "nM"}]}, {"smiles": "CC(c1ccc(C(C)(C)C)cc1)n1nc(CO)c2c(=O)[nH]c(N(C)C)nc21", "note": "(single isomer, unassigned) [Example 66, (R)- or (S)-1-(1-(4-tert-Butylphenyl)ethyl)-6-(dimethylamino)-3-(hydroxymethyl)-1H-pyrazolo[3,4-d]pyrimidin-4(5H)-one]", "values": [{"measurement": "Ki", "setting": "Rhesus PDE2A3; [1]", "value": 12, "unit": "nM"}, {"measurement": "Ki", "setting": "human PDE2A1; [2]", "value": 6.1, "unit": "nM"}]}, {"smiles": "Cc1ccc(C(C)n2nc(CO)c3c(=O)[nH]c(O)nc32)cc1", "note": "(stereo not shown) [Example 8]", "values": [{"measurement": "Ki", "setting": "Rhesus PDE2A3; [3]", "value": 411, "unit": "nM"}]}, {"smiles": "O=c1[nH]c(O)nc2c1c(CO)nn2Cc1ccc(C(F)(F)F)cc1", "note": "[Example 9, 6-Hydroxy-3-(hydroxymethyl)-1-[4-(trifluoromethyl)benzyl]-1,5-dihydro-4H-pyrazolo[3,4-d]pyrimidin-4-one]", "values": [{"measurement": "Ki", "setting": "Rhesus PDE2A3; [3]", "value": "~548", "unit": "nM"}]}, {"smiles": "Cc1nn(Cc2ccc(C(F)(F)F)cc2)c2nc(O)[nH]c(=O)c12", "note": "[Example 61, 6-Hydroxy-3-methyl-1-[4-(trifluoromethyl)benzyl]-1,5-dihydro-4H-pyrazolo[3,4-d]pyrimidin-4-one]", "values": [{"measurement": "Ki", "setting": "Rhesus PDE2A3; [3]", "value": "~951", "unit": "nM"}]}, {"smiles": "C[C@@H](c1ccc(C(F)(F)F)cc1)n1nc(COCc2ccccc2)c2c(=O)[nH]c(O)nc21", "note": "[Example 303, (S)-3-((Benzyloxy)methyl)-6-hydroxy-1-(1-(4-(trifluoromethyl)phenyl)ethyl)-1,5-dihydro-4H-pyrazolo[3,4-d]pyrimidin-4-one]", "values": [{"measurement": "Ki", "setting": "Rhesus PDE2A3; [1]", "value": 206, "unit": "nM"}]}]}
